The source of these data is PMC11705451 (FEBS Open Bio, 2024).

Read-outs that look alike come from different tables or passages of the source.

Experiment [1] has as its target T1, hS1P4 (Homo sapiens, UniProt O95977).
T1 construct: gene S1PR4; receptor stably expressed in CHO-K1 cells
T1 sequence (O95977 1-384): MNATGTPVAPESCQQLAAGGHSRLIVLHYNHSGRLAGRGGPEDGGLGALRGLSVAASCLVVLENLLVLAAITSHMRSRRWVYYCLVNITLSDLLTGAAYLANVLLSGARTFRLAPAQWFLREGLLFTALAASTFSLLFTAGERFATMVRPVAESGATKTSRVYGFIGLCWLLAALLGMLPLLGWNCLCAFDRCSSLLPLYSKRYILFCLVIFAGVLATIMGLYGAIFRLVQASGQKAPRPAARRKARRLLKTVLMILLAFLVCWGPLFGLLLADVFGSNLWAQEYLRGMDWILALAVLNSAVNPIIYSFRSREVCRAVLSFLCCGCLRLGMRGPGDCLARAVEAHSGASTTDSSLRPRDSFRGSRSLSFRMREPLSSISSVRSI
Description: […]GTPgammaS binding, CHO-K1 membranes. It is filed as biochemical. (In general: Binding of GTPγS marks nucleotide exchange on a G protein.)

Experiment [2] deals with T2, hS1P2 (ProLink-tagged, PathHunter) (Homo sapiens, UniProt O95136).
T2 construct: gene S1PR2; PathHunter HEK293 cells, ProLink-tagged; N-terminal HA tag in the internalization assay
The experiment is described as follows: PathHunter beta-arrestin recruitment. In kind it is cell-based.

For experiment [3], the target named is T3, hS1P5 (Homo sapiens, UniProt Q9H228).
T3 construct: gene S1PR5; receptor stably expressed in CHO-K1 cells
Description: […]GTPgammaS binding, CHO-K1 membranes. It is filed as biochemical.

The target in experiment [4] is T4, hS1P3 (Homo sapiens, UniProt Q99500).
T4 construct: gene S1PR3; receptor stably expressed in CHO-K1 cells
Description: […]GTPgammaS binding, CHO-K1 membranes. In kind it is biochemical.

Experiment [5] deals with T5, hS1P5 (ProLink-tagged, PathHunter) (Homo sapiens, UniProt Q9H228).
T5 construct: gene S1PR5; ProLink-tagged receptor, PathHunter HEK293 cells
Description: PathHunter beta-arrestin recruitment. It is filed as cell-based. On the technique in general: Arrestin recruitment assays detect the binding of arrestin to an activated receptor.

Experiment [6] addresses T6, hS1P2 (Homo sapiens, UniProt O95136).
T6 construct: gene S1PR2; receptor stably expressed in CHO-K1 cells
Description: […]GTPgammaS binding, CHO-K1 membranes. It is filed as biochemical.

Experiment [7] has as its target T7, hS1P4 (ProLink-tagged, PathHunter) (Homo sapiens, UniProt O95977).
T7 construct: gene S1PR4; ProLink-tagged receptor, PathHunter HEK293 cells
T7 sequence (O95977 1-384): T1 sequence (O95977 1-384)
The experiment is described as follows: PathHunter beta-arrestin recruitment. It is filed as cell-based.

Experiment [8] deals with T7, hS1P4 (ProLink-tagged, PathHunter). Description: cell-based. On the set-up: species or system PathHunter HEK293; PathHunter beta-arrestin recruitment, agonist concentration-response. As to conditions: HEK293, read-out: S1P4 β-Arrestin Emax, % of S1P. The source says: (§1) We extended our pharmacological analysis of etrasimod and the other test compounds on S1P2–5. […] All tested compounds were agonists of S1P5, inducing both G protein signaling and β‐arrestin recruitment (Table S2).

Experiment [9] has as its target T5, hS1P5 (ProLink-tagged, PathHunter). The experiment is described as follows: cell-based. On the set-up: species or system PathHunter HEK293; PathHunter beta-arrestin recruitment, agonist concentration-response. The note with it: HEK293, read-out: S1P5 β-Arrestin Emax, % of S1P.
Text: as §1

Experiment [10] has as its target T4, hS1P3. The experiment is described as follows: biochemical. It is filed as CHO-K1 membranes. On the set-up: [35S]GTPgammaS binding to membranes, agonist concentration-response. As to conditions: read-out: S1P3 GTPγS Emax, % of S1P. An excerpt: (§2) All tested compounds were agonists of S1P5, inducing both G protein signaling and β‐arrestin recruitment (Table S2).

In experiment [11] the target is T3, hS1P5. The experiment is described as follows: biochemical. On the set-up: [35S]GTPgammaS binding to membranes, agonist concentration-response. It is filed as CHO-K1 membranes. As to conditions: read-out: S1P5 GTPγS Emax, % of S1P.
Text: as §2

For experiment [12], the target named is T8, hS1P3 (ProLink-tagged, PathHunter) (Homo sapiens, UniProt Q99500).
T8 construct: gene S1PR3; ProLink-tagged receptor, PathHunter HEK293 cells
Description: cell-based. Set-up: species or system PathHunter HEK293; PathHunter beta-arrestin recruitment, agonist concentration-response. As to conditions: HEK293, read-out: S1P3 β-Arrestin Emax, % of S1P.
Text: as §1

In experiment [13] the target is T6, hS1P2. Description: biochemical. As to conditions: read-out: S1P2 GTPγS Emax, % of S1P. In kind it is CHO-K1 membranes. Set-up: [35S]GTPgammaS binding to membranes, agonist concentration-response.
Text: as §2

Experiment [14] addresses T1, hS1P4. The experiment is described as follows: biochemical. In kind it is CHO-K1 membranes. Set-up: [35S]GTPgammaS binding to membranes, agonist concentration-response. The note with it: read-out: S1P4 GTPγS Emax, % of S1P.
Text: as §2

The target of experiment [15] is T2, hS1P2 (ProLink-tagged, PathHunter). Description: receptor internalization, fluorescence microscopy. It is filed as cell-based. As to conditions: N-terminal HA tag, 37 °C.

For orientation: EC50 means the midpoint of the concentration-response curve. In general, Emax refers to the greatest response seen or fitted, relative to the assay's reference.

T3 sequence (Q9H228 whole entry): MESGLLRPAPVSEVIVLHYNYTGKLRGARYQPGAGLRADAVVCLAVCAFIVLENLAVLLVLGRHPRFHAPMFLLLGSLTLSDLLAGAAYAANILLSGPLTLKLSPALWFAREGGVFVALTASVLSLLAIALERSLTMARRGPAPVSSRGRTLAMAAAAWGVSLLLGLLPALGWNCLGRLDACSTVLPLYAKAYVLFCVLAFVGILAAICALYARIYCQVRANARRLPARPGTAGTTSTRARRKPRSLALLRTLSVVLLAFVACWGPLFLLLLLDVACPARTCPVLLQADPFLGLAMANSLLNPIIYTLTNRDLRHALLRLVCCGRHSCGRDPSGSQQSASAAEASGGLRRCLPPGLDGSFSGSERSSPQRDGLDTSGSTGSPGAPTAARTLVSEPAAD
T5 sequence (Q9H228 whole entry): as above
T4 sequence (Q99500 whole entry): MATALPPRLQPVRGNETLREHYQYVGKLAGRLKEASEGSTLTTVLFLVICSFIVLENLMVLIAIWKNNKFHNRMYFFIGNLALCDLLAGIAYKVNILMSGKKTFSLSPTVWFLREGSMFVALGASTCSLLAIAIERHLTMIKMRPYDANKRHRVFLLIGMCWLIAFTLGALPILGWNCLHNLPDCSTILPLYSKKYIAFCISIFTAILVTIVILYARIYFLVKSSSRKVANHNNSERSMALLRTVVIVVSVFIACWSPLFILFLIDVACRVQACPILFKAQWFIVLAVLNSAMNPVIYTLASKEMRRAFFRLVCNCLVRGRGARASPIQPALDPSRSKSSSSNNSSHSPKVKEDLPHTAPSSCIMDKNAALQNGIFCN
T6 sequence (O95136 whole entry): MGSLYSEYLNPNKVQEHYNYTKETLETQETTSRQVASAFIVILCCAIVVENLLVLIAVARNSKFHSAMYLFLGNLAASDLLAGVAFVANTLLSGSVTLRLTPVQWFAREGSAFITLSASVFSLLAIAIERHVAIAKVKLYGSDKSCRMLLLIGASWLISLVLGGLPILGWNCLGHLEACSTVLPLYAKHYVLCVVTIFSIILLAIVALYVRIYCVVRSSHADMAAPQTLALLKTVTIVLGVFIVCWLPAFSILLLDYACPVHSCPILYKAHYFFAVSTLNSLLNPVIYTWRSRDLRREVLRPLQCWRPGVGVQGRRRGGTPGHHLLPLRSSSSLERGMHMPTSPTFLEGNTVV
T2 sequence (O95136 whole entry): as above
T8 sequence (Q99500 whole entry): as the sequence (Q99500 whole entry) above

Turning to `O=C(O)C[C@H]1CCc2c1[nH]c1ccc(OCc3ccc(C4CCCC4)c(C(F)(F)F)c3)cc21` [Etrasimod], the EC50 in experiment [1] was greater than 10 µM; in experiment [2] (read-out: EC50), greater than 10 µM; in experiment [3], 0.0634 µM; in experiment [4], 6.05 µM; in experiment [5], 0.0635 µM; in experiment [6] (read-out: EC50) it was greater than 10 µM. The EC50 in [7] stood at 0.141 µM. Moreover, the Emax in [8] worked out at 53.9%; in [9], 85.7%; in experiment [10], 41.5%; in experiment [11] it was 72%.

In the case of `CCCCCCCCc1ccc(CCC(N)(CO)COP(=O)(O)O)cc1` (stereo not shown) [Fingolimod(P)], the EC50 in experiment [1] was 0.0061 µM; in experiment [2] (agonist, 0.1% fatty acid-free BSA, room temperature, 2 h) it was “fingolimod(P) was a weak agonist, in terms of both potency and efficacy”; in experiment [6] (agonist, 0.1% fatty acid-free BSA, room temperature, 10 mM MgCl2), “fingolimod(P) was a weak agonist, in terms of both potency and efficacy”; in experiment [7], 0.0069 µM. Also, the Emax in experiment [12] was determined as 9.1%; in [8], 77.6%; in [9], 48.4%; in [13], 35.2%; in [10] it was 39.1%; in [14] it was 121%. Further, the Emax in experiment [11] is 69.5%.

On to `CC(C)Oc1ccc(-c2nc(-c3cccc4c3CCC4=O)no2)cc1C#N` [Ozanimod(K)], for which the half-maximal effective concentration (EC50) in [1] is greater than 10 µM; in [3], 0.0585 µM; in experiment [4] it was greater than 10 µM; in experiment [5], 0.0958 µM; in experiment [7], greater than 0.5 µM. For the same molecule, the figures for the maximal response (Emax) in experiment [8], in experiment [9] and in experiment [11] were 89.1%, 115% and 105%, respectively.

On to `CC(C)Oc1ccc(-c2nc(-c3cccc4c3CC[C@@H]4NCCO)no2)cc1C#N` [Ozanimod], for which the EC50 was greater than 10 µM in experiment [1]; 0.0288 µM in [3]; greater than 6 µM in experiment [4]; 0.0123 µM in [5]; greater than 0.5 µM in experiment [7]. Also, in experiment [15], the “receptor internalization, fluorescence microscopy” value was “Fingolimod(P) and ozanimod induced robust S1P2 internalization in a dose‐dependent and saturable fashion”.

Take `CCc1cc(/C(C)=N/OCc2ccc(C3CCCCC3)c(C(F)(F)F)c2)ccc1CN1CC(C(=O)O)C1` [Siponimod]: the EC50 in experiment [1] was 0.51 µM; in experiment [4], greater than 10 µM; in [7] it was greater than 0.5 µM. Moreover, the Emax stood at 92.6% in experiment [8], 107% in [9], 134% in experiment [14] and 118% in experiment [11].
